Laboratory results from patent US12667570B2, “Small molecule modulators of KSR-bound MEK” (Icahn School of Medicine at Mount Sinai, priority 2020, dated 2026).

How the values were obtained:
BRAF-MEK1 complex [1] = biological target: T1, BRAF-MEK1 complex (Homo sapiens, UniProt P15056+Q02750); assay: Co-immunoprecipitation via endogenous MEK1 from HCT116 cells, BRAF; format: cell-based; details: 200 nM, 1 hour, relative to DMSO
T1 construct: IP/WB of endogenous MEK1 from HCT116 cells; endogenous in cells; host or cells: HCT116

[2] = biological target: T2, mouse KSR1-luc (KSR-bound MEK) (UniProt Q02750+Q61097); assay: NanoBRET in-cell steady-state IC50 (competition with tram-bo tracer), KSR1-luc; format: binding
T2 construct: expressed in transfected cells; host or cells: HEK293T

KSR1-luc (KSR-bound MEK) = KSR1-luc (KSR-bound MEK) (UniProt Q02750+Q61097); assay: NanoBRET washout experiment, intracellular residence time, KSR1-luc; format: binding, mouse; details: BRET build-up with 1 μM tram-bo, […] time course
Description: (§1) Specifically, transfections of MEK1-luc and KSR1-luc, and construction of the drug transfer plates were carried out as mentioned above. For washout experiments, cells were first removed from adherent plates by trypsin treatment. Following, cells were harvested, spun, and resuspended in Opti-MEM (270 μL total) in centrifuge tubes at 450,000 cells/tube.

MEK1-luc [3] = biological target: T3, MEK1-luc (Homo sapiens, UniProt Q02750); assay: NanoBRET washout experiment, intracellular residence time, MEK1-luc; format: binding; details: BRET build-up with 1 μM tram-bo, […] time course
Description: as §1

BRAF-MEK1 complex [4] = biological target: BRAF-MEK1 complex (Homo sapiens, UniProt P15056+Q02750, R662A); assay: Co-immunoprecipitation via endogenous MEK1 from HCT116 cells, BRAF; format: cell-based; details: 200 nM, 1 hour
KSR1-MEK1 complex = KSR1-MEK1 complex (UniProt Q02750+Q61097, P775N); assay: Co-immunoprecipitation via endogenous MEK1 from HCT116 cells, FLAG-KSR1; format: cell-based, mouse KSR1; details: 200 nM, 1 hour
MEK1-luc [5] = biological target: T3, MEK1-luc; assay: NanoBRET in-cell steady-state IC50 (competition with tram-bo tracer), MEK1-luc; details: IC50 MEK1-luc versus KSR1-luc
KRAS-G12S A549 cells = assay: Long-term clonogenic assay; format: cell-based, human; details: 10 nM final concentration, in comparison to amide-linker compounds (1, 3)
Description: Cells were plated at a density of 6,000 cells per well in 6-well plates in 3 mL of culture medium. Twenty-four hours after seeding, compounds dissolved in DMSO or DMSO-only vehicles were added directly to the culture media at a 1:1000 dilution. Following 10 days of culture, cells were washed 2× in PBS, fixed in ice-cold methanol for 10 minutes, stained with crystal-violet at room temperature for 10 minutes, and subsequently washed three times in water. Plates were allowed to dry overnight before imagining with an Epson V600 scanner.

human KSR1-luc = biological target: T4, human KSR1-luc (Homo sapiens, UniProt Q02750+Q8IVT5); assay: Tram-bo BRET buildup curves, KSR1-luc; format: binding
T4 construct: expressed in transfected cells; host or cells: HEK293T
Description: (§2) Human c-terminal NanoLuc fusions versions of ARAF (Uniprot P10398), BRAF (UniProt P15056), CRAF (Uniprot P04049), KSR1 (Uniprot Q8IVT5), and KSR2 (Uniprot Q6VAB6) were transfected as mentioned above at a concentration of 0.1 μg/mL in combination with 9.9 μg/mL of carrier DNA. All RAF constructs from Promega. […] A 20× tram-bo solution was added to each well to give final concentrations of 4, 1, 0.5, 0.1, 0.05, 0.01, 0.001, 0.0001 μM. […] All data were analyzed using Prism 8 (GraphPad).

human KSR2-luc = biological target: T5, human KSR2-luc (Homo sapiens, UniProt Q02750+Q6VAB6); assay: Tram-bo BRET buildup curves, KSR2-luc; format: binding
T5 construct: expressed in transfected cells; host or cells: HEK293T
Description: as §2

[6] = test system: ARAF-luc, BRAF-luc, and CRAF-luc; assay: Tram-bo BRET buildup curves, RAF family; format: binding, human; details: in cells
Description: as §2

HCT 116 = assay: Cell proliferation / viability assay under low-adherence conditions; format: cell-based, human
Description: A375, A549, HCT116, and SKMEL-239 cells were plated in Corning Costar Ultra-Low Attachment 96-well plates (Reference number 3434). After 24 hours of incubation at 37° C., cells were treated with inhibitors (0.1% DMSO in final volume). Cells were grown for five days, and resazurin sodium salt was added at a final concentration of 0.01 μg/μL. Fluorescence was measured using a Molecular Devices SpectraMax M5 spectrophotometer after a 4-24-hour incubation with resazurin solution. Technical triplicate values were averaged for each experiment, and biological replicate values are represented as average+/−standard deviation. For each cell line, log EC50 values of inhibitors were statistically compared using the extra sum-of-squares F test in GraphPad Prism 8 (FIG. 57, 58, 67, 68, 69).

MEK1 and MEK2 [7] = assay: In vitro kinase profiling, direct binding assays, MEK1/MEK2; details: 1 μM
Text: (§3) FIG. 65 Trametiglue targets both KSR-MEK and RAF-MEK with unprecedented potency and selectivity via unique interfacial binding interactions.

isolated BRAF or CRAF = assay: In vitro kinase profiling, direct binding assays, BRAF/CRAF; details: 1 μM
Text: as §3

MEK1 and MEK2 [8] = assay: In vitro substrate phosphorylation assays, MEK1/MEK2; format: biochemical; details: panel of active kinases
Text: as §3

[9] = test system: BRAF and CRAF phosphorylation of MEK1; assay: In vitro phosphorylation of MEK1 by upstream kinases; format: biochemical; details: MEK1 as substrate
Text: as §3

[10] = test system: phosphorylated ERK1/2 at residues T202 and Y204 (pERK); assay: Immunoblot of RAS/ERK pathway inhibition; format: cell-based, human; details: 1 hour, increasing concentrations
Description: Cells were plated at a density of 300,000 cells per well in 6-well plates in 2 mL of culture medium. 24 hours after seeding, cells were treated with compounds or DMSO at a 1:1000 dilution (0.1% DMSO in final volume). […] Samples were normalized to a protein content of 5 μg/μL in 100 μL total volume, and 20 μL of 6×SDS was added. […] Transfers were confirmed using ponceau red, washed, and then blocked for 1 hour with 5% BSA TBS-T, prior to overnight incubation with primary antibodies including phospho-ERK1/2 T202/Y204 and total ERK1/2 (Cell Signaling Technologies (CST) 9101S and 4695S, respectively) in 5% BSA TBS-T. The next day, blots were washed extensively, and incubated in secondary antibody (Anti-Rabbit IgG HRP-Linked CST 7074S).

isolated MEK1 = biological target: T6, isolated MEK1 (Oryctolagus cuniculus, UniProt P29678, S298N/S299K/Y300F); assay: Bio-layer interferometry (BLI), isolated MEK1; format: binding, rabbit; details: read-out: dissociation constant (KD), isolated MEK1
T6 construct: rabbit MEK1 (residues 35-393; Uniprot ID: P29678); hexahistidine tag with TEV-cleavage site (N); made in house; host or cells: SF21 insect cells (baculovirus)
T6 sequence (P29678 35-393 S298N/S299K/Y300F): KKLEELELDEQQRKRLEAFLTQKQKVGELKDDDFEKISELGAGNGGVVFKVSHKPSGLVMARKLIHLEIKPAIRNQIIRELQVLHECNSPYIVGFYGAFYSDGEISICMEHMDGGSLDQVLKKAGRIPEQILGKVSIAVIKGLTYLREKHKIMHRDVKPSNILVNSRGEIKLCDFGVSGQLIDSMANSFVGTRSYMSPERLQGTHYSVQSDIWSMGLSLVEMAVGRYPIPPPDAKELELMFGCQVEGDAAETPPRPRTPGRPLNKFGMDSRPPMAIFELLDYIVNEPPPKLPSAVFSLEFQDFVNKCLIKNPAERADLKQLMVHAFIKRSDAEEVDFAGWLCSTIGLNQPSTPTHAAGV
Description: (§4) BLI measurements were performed using an Octet Red96 (Forte Bio, Inc.) system. All experiments were conducted at 25° C. with shaking at 1000 rpm, and in a buffer containing 20 mM Hepes pH 7.5, 200 mM NaCl, 1 mM ATP, 5 mM MgCl2, 0.02% Tween-20, 1% DMSO. […] This amount of immobilization typically achieved 1.5-2.0 nm binding signal. Biosensors were then washed in buffer, treated in a solution of biocytin for 3 min, and then again washed extensively to achieve a normalized baseline signal of ˜0 nm. Following, for kinetic analysis, biosensors were dipped in solutions of free MEK1, BRAF:MEK1, KSR1:MEK1, or KSR2:MEK1. Association was measured for 10 or 15 minutes, following a dissociation phase in buffer of 15 minutes. […] All experiments were performed at least three independent times, with raw data processed and analyzed using global fit binding models in Fortebio software to derive KD (M), Kon(1/M·s), and Kdis (1/s) values. […] One-to-one binding models provided a high agreement with the measured binding signals based on chi-squared and R-squared values. Raw data and fitting, mean and standard deviation determinations, as well as statistical analysis, for KD, kon(1/M·s), kdis(1/s), and τ(min) are included in FIG. 71.

BRAF-MEK1 = biological target: T7, BRAF-MEK1 (Oryctolagus cuniculus, UniProt P29678, S298N/S299K/Y300F); assay: Bio-layer interferometry (BLI), BRAF-MEK1; format: binding, human BRAF; rabbit MEK1; details: read-out: dissociation constant (KD), MEK1-BRAF
T7 construct: human BRAF (residues 432-726; Uniprot ID: P15056); rabbit MEK1 (residues 35-393; Uniprot ID: P29678); hexahistidine tag with TEV-cleavage site (N); made in house; host or cells: SF21 insect cells (baculovirus)
T7 sequence (P29678 35-393 S298N/S299K/Y300F): as above
Description: as §4

KSR1-MEK1 = biological target: T8, KSR1-MEK1 (UniProt P29678+Q8IVT5, S298N/S299K/Y300F); assay: Bio-layer interferometry (BLI), KSR1-MEK1; format: binding, human KSR1; rabbit MEK1; details: read-out: dissociation constant (KD), KSR1-MEK1
T8 construct: human KSR1 (residues 591-899; Uniprot ID:Q8IVT5); rabbit MEK1 (residues 35-393; Uniprot ID: P29678); hexahistidine tag with TEV-cleavage site (N); made in house; host or cells: SF21 insect cells (baculovirus)
T8 sequence (Q8IVT5 591-899): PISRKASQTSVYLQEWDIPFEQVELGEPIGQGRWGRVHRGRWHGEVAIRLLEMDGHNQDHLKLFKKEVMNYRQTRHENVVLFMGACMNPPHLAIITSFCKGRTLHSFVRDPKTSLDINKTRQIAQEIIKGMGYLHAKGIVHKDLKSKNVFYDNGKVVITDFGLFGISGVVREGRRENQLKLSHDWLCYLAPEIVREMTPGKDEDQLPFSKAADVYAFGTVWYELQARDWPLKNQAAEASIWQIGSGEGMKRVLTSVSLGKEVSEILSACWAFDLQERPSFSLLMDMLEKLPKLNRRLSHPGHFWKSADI
T8 sequence (P29678 35-393 S298N/S299K/Y300F): as the sequence (P29678 35-393 S298N/S299K/Y300F) above
Description: as §4

KSR2-MEK1 = biological target: T9, KSR2-MEK1 (UniProt P29678+Q6VAB6, S298N/S299K/Y300F); assay: Bio-layer interferometry (BLI), KSR2-MEK1; format: binding, human KSR2; rabbit MEK1; details: read-out: dissociation constant (KD), KSR2-MEK1
T9 construct: human KSR2 (residues 634-950; Uniprot ID: Q6VAB6); rabbit MEK1 (residues 35-393; Uniprot ID: P29678); hexahistidine tag with TEV-cleavage site (N); made in house; host or cells: SF21 insect cells (baculovirus)
T9 sequence (Q6VAB6 634-950): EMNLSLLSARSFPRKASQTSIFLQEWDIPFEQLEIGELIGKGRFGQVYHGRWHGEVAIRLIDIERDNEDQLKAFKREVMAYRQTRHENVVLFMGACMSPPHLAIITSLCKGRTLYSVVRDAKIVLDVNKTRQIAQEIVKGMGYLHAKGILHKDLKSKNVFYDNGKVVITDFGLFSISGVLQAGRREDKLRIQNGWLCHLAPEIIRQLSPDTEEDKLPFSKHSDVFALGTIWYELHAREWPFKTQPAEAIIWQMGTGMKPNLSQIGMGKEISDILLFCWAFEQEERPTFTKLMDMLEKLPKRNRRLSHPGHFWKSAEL
T9 sequence (P29678 35-393 S298N/S299K/Y300F): as the sequence (P29678 35-393 S298N/S299K/Y300F) above
Description: as §4

[11] = BRET buildup, increasing tram-bo
[12] = HCT 116, low-adherence conditions

CNS(=O)(=O)Nc1nccc(Cc2c(C)c3ccc(Oc4ncccn4)cc3oc2=O)c1F [CH5126766]
pulldown of wild-type BRAF via endogenous MEK1 (BRAF-MEK1 complex [1]): enhances interactions between endogenous BRAF and MEK1

O=C(c1ccc(F)c(F)c1Nc1ccc(I)cc1F)N1CC(O)([C@@H]2CCCCN2)C1 [cobimetinib]
IC50 on KSR1-luc compared with MEK1-luc ([2]; competition of tram-bo): more potent IC50 values on KSR1-luc over MEK1-luc | dissociation kinetics after washout on KSR1-luc (KSR1-luc (KSR-bound MEK)): dissociated more readily | dissociation kinetics after washout on MEK1-luc (MEK1-luc [3]): dissociated more readily | pulldown of BRAF mutant B2 (R662A) via endogenous MEK1 (BRAF-MEK1 complex [4]): did not alter complex stability | pulldown of KSR1 mutant K1 (P775N) via endogenous MEK1 (KSR1-MEK1 complex): did not alter complex stability | difference in potency between KSR1-luc and MEK1-luc (MEK1-luc [5]): ~20 fold

Cc1c(=O)n(C)c(Nc2ccc(I)cc2F)c2c(=O)n(C3CC3)c(=O)n(-c3cccc(NS(=O)(=O)NC4CC4)c3)c12 [compound 5, N-(3-(3-cyclopropyl-5-((2-fluoro-4-iodophenyl)amino)-6,8-dimethyl-2,4,7-trioxo-3,4,6,7-tetrahydropyrido[4,3-d]pyrimidin-1(2H)-yl)phenyl)cyclopropylaminosulfonamide]
growth inhibition in clonogenic assay (KRAS-G12S A549 cells): enhanced and durable growth inhibition

CCN(C)S(=O)(=O)Nc1cccc(-n2c(=O)n(C3CC3)c(=O)c3c(Nc4ccc(I)cc4F)n(C)c(=O)c(C)c32)c1 [compound 6, N-(3-(3-cyclopropyl-5-((2-fluoro-4-iodophenyl)amino)-6,8-dimethyl-2,4,7-trioxo-3,4,6,7-tetrahydropyrido[4,3-d]pyrimidin-1(2H)-yl)phenyl)-N′-ethyl(methyl)sulfonamide 2,2,2-trifluoroacetate]
growth inhibition in clonogenic assay (KRAS-G12S A549 cells): enhanced and durable growth inhibition

Cc1c(=O)n(C)c(Nc2ccc(I)cc2F)c2c(=O)n(C3CC3)c(=O)n(-c3cccc(NC(=O)CCOCCOCCNC(=O)CCC4=[N+]5C(=Cc6ccc(-c7ccc[nH]7)n6[B-]5(F)F)C=C4)c3)c12 [tram-bo]
binding to KSR1-luc relative to ARAF-luc, BRAF-luc and CRAF-luc (human KSR1-luc; [11]): ~10 fold | BRET binding signal, KSR1-luc (human KSR1-luc; in cells): strong BRET binding signals | binding to KSR2-luc relative to ARAF-luc, BRAF-luc and CRAF-luc (human KSR2-luc; [11]): ~10 fold | BRET binding signal, KSR2-luc (human KSR2-luc; in cells): strong BRET binding signals | BRET signal, ARAF-luc, BRAF-luc, CRAF-luc [6]: much weaker BRET signals

CNS(=O)(=O)Nc1cccc(-n2c(=O)n(C3CC3)c(=O)c3c(Nc4ccc(I)cc4F)n(C)c(=O)c(C)c32)c1 [trametiglue, N-(3-(3-Cyclopropyl-5-((2-fluoro-4-iodophenyl)amino)-6,8-dimethyl-2,4,7-trioxo-3,4,6,7-tetrahydropyrido[4,3-d]pyrimidin-1(2H)-yl)phenyl)methylaminosulfonamide]
potency and off-rate kinetics compared with trametinib ([2]; KSR-luc or MEK-luc reporters, steady-state and washout): retained similar potency and off-rate kinetics as trametinib | improvement in potency relative to CH5126766 (HCT 116; [12]): ~200 fold | improvement in potency relative to trametinib (HCT 116; [12]): approximately 7 fold | IC50 (HCT 116; Homo sapiens, HCT-116, 120 h, low-adherence conditions, five days): 0.07 ± 0.04 nM | pulldown of wild-type BRAF via endogenous MEK1 (BRAF-MEK1 complex [1]): markedly enhanced capture of BRAF | selectivity in kinase binding experiments (MEK1 and MEK2 [7]): strong selectivity towards MEK1 and MEK2 | direct interaction with isolated BRAF or CRAF (isolated BRAF or CRAF): no direct interactions | inhibition of MEK1 and MEK2 substrate phosphorylation (MEK1 and MEK2 [8]): inhibited MEK1 and MEK2 | inhibition of MEK1 phosphorylation by upstream kinases [9]: inhibition of both BRAF and CRAF phosphorylation of MEK1 | growth inhibition in clonogenic assay (KRAS-G12S A549 cells): enhanced and durable growth inhibition | inhibition of RAS-MAPK signaling measured by pERK, relative to trametinib [10]: higher potency inhibitor of RAS-MAPK signaling

CC(=O)Nc1cccc(-n2c(=O)n(C3CC3)c(=O)c3c(Nc4ccc(I)cc4F)n(C)c(=O)c(C)c32)c1 [trametinib]
Kd (isolated MEK1): 131 ± 9.4 nM | Kd (BRAF-MEK1): 217 ± 3.2 nM | Kd (KSR1-MEK1): 63.9 ± 4.7 nM | Kd (KSR2-MEK1): 70.4 ± 4.4 nM
